Laboratory results: PMC9879939, “Synergy of ruthenium metallo-intercalator, [Ru(dppz)2(PIP)]^2+, with PARP inhibitor Olaparib in non-small cell lung cancer cells” (Scientific Reports, 2023)
“And” between values parts separate entries of the source, which are not always exact repeats. Equal entries are not always repeated.

Experiments:
H1975 lung cancer cells = test: MTT assay (cell viability; CI and SI derived from it); type: cell-based, human; conditions: for IC50: H1975, max tested 100 μM, combinations: Ru-PIP gradient with fixed Olaparib; for Selectivity Index (SI) = IC50 normal cells/IC50 cancer cells: MRC5 vs H1975
Experimental: (§1) Cells were seeded in 96-well plates at 5 × 10^3 cells/well and allowed to adhere overnight. […] For drug combination treatment, cells were treated with concentration gradient of Ru-PIP (3.125–100 µM) in combination with Olaparib (5 or 10 µM). After 24, 48 or 72 h incubation, 0.5 mg/ml thiazolyl blue tetrazolium bromide (MTT) dissolved in 1X PBS was added to each well and cells were incubated at 37 °C for 4 h. 100 µl of DMSO was added to each well to solubilize the reduced purple formazan crystals formed. Next, the absorbance at 570 nm (630 nm as reference wavelength) was measured using a microplate reader. The half maximal inhibitory concentration (IC50) for each compound was determined using GraphPad Prism software. Additionally, selectivity indices (SI) were determined by the ratio between IC50 of normal cells and that of cancer cells.
(§2) Based on the data obtained from MTT assay, combination indices (CI) were determined using Calcusyn and CompuSyn software (Biosoft, Cambridge, UK). This is based on the established drugs combination method by Chou and Talalay[30],[31]. CI values indicate the type of drugs interaction in which CI < 0.9 indicates synergism, CI = 0.9–1.0 indicates additive and CI > 1.0 indicates antagonism. GraphPad Prism software was used to generate a three-color scale based on CI values obtained, where synergism is represented by green, additive by yellow, and antagonism by red in which the colors of each CI value were interpolated in between these constraints accordingly.

A549 lung cancer cells = test: as above; type: cell-based, human; conditions: for IC50: A549, max tested 100 μM, combinations: Ru-PIP gradient with fixed Olaparib; for Selectivity Index (SI) = IC50 normal cells/IC50 cancer cells: MRC5 vs A549
Experimental: as §1, §2

T24 bladder cancer cells = test: as above; type: cell-based, human; conditions: for IC50: T24, max tested 100 μM, combinations: Ru-PIP gradient with fixed Olaparib; for Selectivity Index (SI) = IC50 normal cells/IC50 cancer cells: MRC5 vs T24
Experimental: as §1, §2

[1] = tested on: MRC5 normal human lung fibroblasts; test: MTT assay (cell viability); type: cell-based; conditions: max tested 100 μM, combinations: Ru-PIP gradient with fixed Olaparib
Experimental: as §1

A549 cells [2] = test: Wound healing assay; type: cell-based, human
Experimental: Lung cancer cells were seeded at density of 5 × 10^5 cells/well in a 6-well plate and were incubated in the incubator until a confluent monolayer of cells formed. After serum-starved for 4 h, a straight scratch was made in each well with a sterile 200 µl pipette tip, solution was removed, and each well was washed with 1X PBS twice. Cells were treated with Ru-PIP (25 µM), Olaparib (5 µM) or both. Cells migration in the wound scratch area was photographed at 0, 24, 48 and 72 h timepoints. Images were photographed at 10 × magnification using a camera attached microscope and were analyzed using ImageJ software. The percentage of wound scratch closure was determined by measuring the reduction in the wound area at each time point by comparing to 0 h (100%).

A549 cells [3] = test: Apoptosis annexin V-FITC assay; type: cell-based, human
Experimental: Lung cancer cells were seeded in 6-well plate at 1 × 10^5 cells/well and allowed to adhere overnight. Cells were treated with Ru-PIP (25 µM), Olaparib (5 µM) or both. After 24 or 48 h incubations, cells were harvested, washed with 1X PBS twice and 500 µl of 1X binding buffer was added to the samples. After, the samples were incubated with 5 µl Annexin V-FITC (Invitrogen) for 20 min at RT. Prior to flow cytometric analysis, 5 µl of PI was added. Samples were acquired was analyzed using NovoCyte flow cytometer and NovoExpress software. For each sample, a minimum of 10,000 cells were counted and analyzed.

A549 spheroids = test: Spheroids growth inhibition studies; type: cell-based, human; conditions: Ru-PIP 25 µM; for structural integrity of pre-formed spheroids: Olaparib 5 µM or both, 12 days after treatment initiation
Experimental: Spheroids establishment was attempted for A549 lung cancer cells using hanging drop method. 20 µL of cell suspension containing 2000, 4000, 6000, 8000 and 10,000 cells were dropped onto the surface of petri dish lid and incubated at 37 °C, such that each drop will contain single spheroid. After three days of incubation, each spheroid formed was transferred onto agarose-coated (50 µL, 0.6%) 96-well plates containing 80 µL growth media and further incubated for 15 days at 37 °C, such that each well contained a single spheroid. Formation of spheroids was observed and imaged every three days using a light microscope with a 4 × objective lens connected to a digital camera. During growth, 50% of the media was replaced every three days. The growth in volume of each spheroid was determined according to a published method. At least six spheroids were grown per seeding density for each independent experiment.
Spheroids were grown as described initially. Initial cell seeding density was chosen such that each spheroid reached a diameter of approximately 400 μm after three days (4,000 cells/well for A549 cells). After spheroids formation, spheroids were incubated with Ru-PIP (25 µM), Olaparib (5 µM) or both for a period of 12 days. The structural integrity of spheroids upon treatment was observed and imaged for every three days using a light microscope with a 4 × objective lens connected to a digital camera, and the volume of each spheroid was measured according to a published method. Prior to imaging, 50% of treatment-containing medium was replaced (every three days). At least six spheroids were grown per treatment for each independent experiment.

zebrafish embryos = test: Acute toxicity test on zebrafish embryos (OECD Test No. 236); conditions: zebrafish embryos
Experimental: (§3) The newly fertilized eggs at less than 1 hpf (hours post fertilization) were collected, washed with deionized water and incubated at RT (28 ± 1 °C) in Danio-SprintM embryo media. […] Untreated control consisting of Danio-SprintM embryo media containing 0.1% DMSO. 24 embryos were used in total for each concentration per treatment of two independent experiments (n = 24). The zebrafish embryos development was observed and imaged using a light microscope attached to a digital camera at 24, 48, 72 and 96 hpf (hours post fertilization). Four lethal endpoints were evaluated including coagulated embryos, lack of somite formation, non-detachment of the tail and lack of heartbeat. All these characteristics were recorded every 24 hpf, except heartbeat, which is visible after 48 hpf. […] Hatching which is also considered as a sensitive endpoint toxicity parameter was also observed in which hatching normally occurs at 48 to 72 hpf.

A549 cells [4] = test: Cell cycle analysis (PI staining, flow cytometry); type: cell-based, human; conditions: Ru-PIP 25 µM, 24 h
Experimental: Lung cancer cells were seeded in 6-well plate at density of 1 × 10^5 cells/well and allowed to adhere overnight. Cells were treated with Ru-PIP (25 µM), Olaparib (5 µM) or both. After 24 or 48 h incubations, cells were harvested, washed with 1X PBS twice, and fixed with ice-cold 70% ethanol at least overnight at − 20 °C. The fixed cells were collected by centrifugation at 1,000 rpm for 5 min and the resulting pellets were washed with 1X PBS twice. The samples were resuspended in 500 µl PBS and treated with 5 µl RNase A solution (10 mg/ml) for 15 min at RT. After incubation, the samples were stained with 2 µl of propidium iodide (PI) solution (5 mg/ml) at RT, in the dark. Samples were acquired, and cell cycle distribution was analyzed using NovoCyte flow cytometer and NovoExpress software. For each sample, a minimum of 10,000 cells were counted and analyzed.

[5] = tested on: A549, H1975 and T24 cells; test: MTT assay, summary statements over the cancer cell lines; type: cell-based, human
Experimental: as §1

in vivo = conditions: zebrafish, in vivo
Experimental: as §3

[6] = 24 h, Ru-PIP 25 µM or Olaparib 5 µM

Compound: N.N.[Cl][Pt][Cl] [Cisplatin, cis-diamminedichloroplatinum(II)]
- IC50 (H1975 lung cancer cells; 24 h): 26.6 ± 9.9 µM
- IC50 (H1975 lung cancer cells; 48 h): 20 ± 6.7 µM
- IC50 (H1975 lung cancer cells; 72 h): 13.5 ± 5.7 µM
- IC50 (A549 lung cancer cells; 24 h): 6.6 ± 2 µM
- IC50 (A549 lung cancer cells; 48 h): 4.8 ± 0.5 µM
- IC50 (A549 lung cancer cells; 72 h): 2.9 ± 1.2 µM
- IC50 (T24 bladder cancer cells; 24 h): 59.6 ± 7 µM
- IC50 (T24 bladder cancer cells; 48 h): 20.8 ± 7.2 µM
- IC50 (T24 bladder cancer cells; 72 h): 7.3 ± 1.1 µM
- IC50 ([1]; 24 h): 13.5 ± 2.4 µM
- IC50 ([1]; 48 h): 9.5 ± 1.2 µM
- IC50 ([1]; 72 h): 7.4 ± 2 µM

Compound: [Ru+2].c1ccc(-c2nc3c4cccnc4c4ncccc4c3[nH]2)cc1.c1ccc2nc3c4cccnc4c4ncccc4c3nc2c1.c1ccc2nc3c4cccnc4c4ncccc4c3nc2c1 [Ru-PIP, [Ru(dppz)2(PIP)]^2+]
- wound closure (A549 cells [2]; Ru-PIP 25 µM, time point not stated (untreated 100% closed at 72 h)): 88%
- IC50 (H1975 lung cancer cells; 24 h): > 100 µM
- IC50 (H1975 lung cancer cells; 48 h): 95.1 ± 2.9 µM
- IC50 (H1975 lung cancer cells; 72 h): 59.4 ± 11.6 µM
- Selectivity Index (SI) = IC50 normal cells/IC50 cancer cells (H1975 lung cancer cells; 48 h): 0.9
- Selectivity Index (SI) = IC50 normal cells/IC50 cancer cells (H1975 lung cancer cells; 72 h): >1.6
- IC50 (A549 lung cancer cells; 24 h): 34.5 ± 10.5 µM
- IC50 (A549 lung cancer cells; 48 h): 19.4 ± 3.5 µM
- IC50 (A549 lung cancer cells; 72 h): 11.4 ± 0.3 µM
- Selectivity Index (SI) = IC50 normal cells/IC50 cancer cells (A549 lung cancer cells; 24 h): >2.8
- Selectivity Index (SI) = IC50 normal cells/IC50 cancer cells (A549 lung cancer cells; 48 h): 4.6
- Selectivity Index (SI) = IC50 normal cells/IC50 cancer cells (A549 lung cancer cells; 72 h): > 8.7
- Selectivity Index (SI) = IC50 normal cells/IC50 cancer cells (T24 bladder cancer cells; 24 h): >2.2
- Selectivity Index (SI) = IC50 normal cells/IC50 cancer cells (T24 bladder cancer cells; 48 h): 4.0
- Selectivity Index (SI) = IC50 normal cells/IC50 cancer cells (T24 bladder cancer cells; 72 h): >6.3
- IC50 (T24 bladder cancer cells; 24 h): 45.1 ± 6.2 µM
- IC50 (T24 bladder cancer cells; 48 h): 22.7 ± 2.8 µM
- IC50 (T24 bladder cancer cells; 72 h): 15.8 ± 2.9 µM
- levels of apoptotic cells (A549 cells [3]; [6]): comparable levels of apoptotic cells with untreated control
- levels of apoptotic cells (A549 cells [3]; 48 h, Ru-PIP 25 µM alone or with Olaparib 5 µM): increase in apoptotic cells was observed
- spheroid growth (A549 spheroids; 12 days): prevented spheroid growth
- structural integrity of pre-formed spheroids (A549 spheroids): remained structurally intact
- IC50 ([1]; 24 h): > 100 µM
- IC50 ([1]; 48 h): 91 ± 7.9 µM
- IC50 ([1]; 72 h): > 100 µM
- embryos showing yolk sac edema (zebrafish embryos; 50 mg/L Ru-PIP alone, 96 hpf): 33%
- embryos' hatching prevented (zebrafish embryos; 100 mg/L): ~100%
- 96 h LC50 (zebrafish embryos; 96 h treatment): 57.5 µg/mL and 55.5 µg/mL
- survival and morphological changes of embryos (zebrafish embryos; < 25 mg/L): the embryos survive without any morphological defects
- increase in G1 phase compared to control (A549 cells [4]): 16.1%
- selectivity indices (SI) ([5]; 72 h treatments, A549, H1975 and T24 cells vs normal MRC5 cells): > 1.6

Compound: O=C(c1cc(Cc2n[nH]c(=O)c3ccccc23)ccc1F)N1CCN(C(=O)C2CC2)CC1 [Olaparib]
- impact on cell migration (A549 cells [2]; Olaparib 5 µM): negligible impact on cell migration
- IC50 (H1975 lung cancer cells; Homo sapiens, NCI-H1975, 24 h): > 100 µM
- IC50 (H1975 lung cancer cells; Homo sapiens, NCI-H1975, 48 h): > 100 µM
- IC50 (H1975 lung cancer cells; Homo sapiens, NCI-H1975, 72 h): 71.7 ± 11.8 µM
- Selectivity Index (SI) = IC50 normal cells/IC50 cancer cells (H1975 lung cancer cells; 72 h): >1.3
- IC50 (A549 lung cancer cells; Homo sapiens, 24 h): > 100 µM
- IC50 (A549 lung cancer cells; Homo sapiens, 48 h): > 100 µM
- IC50 (A549 lung cancer cells; Homo sapiens, 72 h): > 100 µM
- IC50 (T24 bladder cancer cells; Homo sapiens, 24 h): > 100 µM
- IC50 (T24 bladder cancer cells; Homo sapiens, 48 h): > 100 µM
- IC50 (T24 bladder cancer cells; Homo sapiens, 72 h): > 100 µM
- levels of apoptotic cells (A549 cells [3]; [6]): comparable levels of apoptotic cells with untreated control
- structural integrity of pre-formed spheroids (A549 spheroids): remained structurally intact
- IC50 ([1]; Homo sapiens, 24 h): > 100 µM
- IC50 ([1]; Homo sapiens, 48 h): > 100 µM
- IC50 ([1]; Homo sapiens, 72 h): > 100 µM
- LC50 at 96 h (in vivo): > 100 µg/mL
- morphological changes of embryos (zebrafish embryos; > 25 mg/L): substantial morphological abnormalities of pericardial edema, yolk sac edema and spinal deformity
- cell cycle profile (A549 cells [4]; Olaparib 5 µM or both): comparable cell cycle profile with the untreated control
- IC50 ([5]; Homo sapiens, 72 h, A549, H1975 and T24 cells together, read-out: 72 h IC50 on the tested cancer cells): > 71.7 µM
